Data published in PMC11590106, “Computational Model-Assisted Development of a Nonenzymatic Fluorescent Glucose-Sensing Assay” (ACS Sensors, 2024).

Experiments:
Concanavalin A (ConA) [1] = target: T1, Concanavalin A (ConA) (Canavalia ensiformis, UniProt P02866); assay: competitive fluorescence anisotropy, displacement of Cy5.5-mannotetraose from PEG-ConA; assay type: binding; parameters: ConA Type IV (Sigma), PEGylated (5 kDa mPEG)
Concanavalin A (ConA) [2] = target: T1, Concanavalin A (ConA); assay: fluorescence anisotropy titration (association constant Ka); assay type: binding; parameters: ConA Type IV (Sigma), PEGylated (5 kDa mPEG); tetramer treated as one protein

T1 sequence (P02866 164-281 limits assumed): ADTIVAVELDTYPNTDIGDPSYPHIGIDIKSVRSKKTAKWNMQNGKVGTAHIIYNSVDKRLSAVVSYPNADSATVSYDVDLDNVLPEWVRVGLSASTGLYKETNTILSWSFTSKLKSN
T1 sequence (P02866 30-148 limits assumed): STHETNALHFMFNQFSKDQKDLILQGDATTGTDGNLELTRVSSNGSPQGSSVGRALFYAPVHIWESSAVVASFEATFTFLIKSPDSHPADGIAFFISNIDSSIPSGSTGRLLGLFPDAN

Row | Compound | competitive fluorescence anisotropy, displacement of Cy5.5-mannotetraose from PE (Concanavalin A (ConA) [1]) | fluorescence anisotropy titration (association constant Ka) (Concanavalin A (ConA) [2])
1 | OC[C@H]1OC(O)[C@H](O)[C@@H](O)[C@@H]1O (stereo partly drawn) [glucose] | a sensitive response of the assay was observed for various glucose concentrations within the physiological range | –
2 | Cy5.5-mannobiose | – | 1.73 × 10^6 M^–1
3 | Cy5.5-mannotriose | – | 5.33 × 10^6 M^–1
